Results: patent publication US20240287029A1, “SULFONAMIDES, METHOD FOR PREPARATION THEREOF, AND USE THEREOF” (CHENGDU SHIBEIKANG BIOMEDICAL TECHNOLOGY CO., LTD., priority 2021, published 2024)
Marks after values point to notes of the source that are not given here.

Tests used:
[1] = tested on: ammonia-induced coughs in mice; assay: Mouse coughing test (concentrated ammonia induced cough); assay type: in vivo; settings: KM mice, 30 mg/kg intragastric; for Number of coughs: 30 min after administration; for Number of coughs / Number of coughs 60 min / Number of coughs 120 min: coughs within 3 min, group mean; for Number of coughs 60 min: 60 min after administration; for Number of coughs 120 min: 120 min after administration; for duration of cough-relieving action compared to Comparative Compound 1: 60 and 120 min
Source text: Healthy adult KM mice, half male and half female, 6 mice in each group, each weighing about 28-30 g.
Most of the animal coughing models reported in the literature use mechanical, chemical and electrical stimulation to stimulate the animal's nerves and receptors to trigger coughing. Based on the characteristics of the candidate compounds and the existing similar target compounds as a reference, the concentrated ammonia induction method was preliminarily selected to establish a coughing model in mice.
Preparation of 50% aqueous ammonia solution: 2.5 ml aqueous ammonia was dissolved in a 5 ml injection solution of 0.9% sodium chloride, and mixed well.
Preparation of solutions of the positive control and Comparative Compound 1: each of 9 mg positive control and 9 mg Comparative Compound 1 was weighed and dissolved in a 3 ml solution of 0.5% CMC-Na, and fully mixed, to obtain a 3 mg/ml solution.
Preparation of solutions of the compounds of Examples: 9 mg of the compound of each Example was dissolved in a 3 ml solution of 0.5% CMC-Na, and mixed thoroughly, to obtain a 3 mg/ml solution.
Grouping: Comparative Example 1 group, Positive control group, Example group, Model group. Six KM mice in each group were intragastrically given Comparative Compound 1 (30 mg/kg), the positive control (Gefapixant, purchased, 30 mg/kg), and an Example compound (30 mg/kg), and the model group was given an equal volume of 0.5% CMC-Na solution. 30 min, 60 min, or 120 min after administration, each mouse was placed in a 500 ml beaker, and a cotton ball (weight: 100±5 mg) containing 0.3 ml 50% aqueous ammonia was placed in the beaker. The number of typical coughs by the mouse within 3 min was observed (typical cough: contraction of the abdominal muscle or contraction of the chest, accompanied by wide opening of the mouth and a coughing sound).
• (1) Cough judgment criteria: Cough was judged by contraction of the abdominal muscle or contraction of the chest, accompanied by wide opening of the mouth and a coughing sound. • (2) The number of coughs by the mice within 3 min was recorded with a stop watch, and statistically analyzed with software. The data of each group were statistically expressed in mean±standard deviation, and one-way ANOVA between multiple groups was performed, P<0.05 for statistically significant difference.

[2] = target: T1, human P2X3 receptor (Homo sapiens, UniProt P56373); assay: In vitro biological activity evaluation, P2X3 antagonist mode FLIPR assay with BZATP agonist
T1 sequence (P56373 1-397): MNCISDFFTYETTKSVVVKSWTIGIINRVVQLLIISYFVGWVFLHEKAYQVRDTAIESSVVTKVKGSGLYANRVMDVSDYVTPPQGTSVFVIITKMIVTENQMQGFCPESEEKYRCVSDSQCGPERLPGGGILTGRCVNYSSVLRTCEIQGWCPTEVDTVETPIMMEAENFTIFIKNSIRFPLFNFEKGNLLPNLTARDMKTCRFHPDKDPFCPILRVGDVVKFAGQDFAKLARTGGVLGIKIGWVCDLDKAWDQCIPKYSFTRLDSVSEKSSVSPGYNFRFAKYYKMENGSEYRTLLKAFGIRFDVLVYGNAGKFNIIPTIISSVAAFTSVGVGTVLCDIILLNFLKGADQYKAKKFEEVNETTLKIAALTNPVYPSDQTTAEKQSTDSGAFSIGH
Source text: A HEK293 cell line stably transfected with human P2X3 receptor was used.

[3] = tested on: sense of taste of rats; assay: Taste disorder test (quinine water / tap water two-bottle drinking); assay type: in vivo, SD rats; settings: 10 mg/kg intravenous; for effect on the sense of taste: quinine water/tap water ratio vs solvent group, in words; for Quinine water/tap water (%): SD rats, drinking 0 to 15 min after administration, 0.3 mM quinine
Protocol: Preparation of 0.3 mM quinine solution: 119.20 mg quinine hydrochloride was weighed and dissolved in 1,000 ml tap water, and mixed well.
Preparation of test sample solution: 40 mg of the test sample was weighed and added to an appropriate amount of DMSO and dissolved, then a solution of solubilizer HS-15 was added thereto and mixed well, and 16 ml saline was added, to obtain a solution of 2.5 mg/ml.
Animals and grouping: male SD rats each about 160 to 180 g, 10 rats per group, with similar average weight in each group, fed in separate cages.
Drinking habit training: the animals in each group were given normal drinking water for 30 minutes at 8:30 am and 4:30 pm every day, with water deprivation for the rest of the day, and trained for 5 days, wherein two bottles of water placed in the left and right positions respectively were renewed every day.
Administration: After water deprivation over the night before the experiment, on the next morning 4 mL/kg (10 mg/kg) of the test sample was injected intravenously in the tail vein of the rats in the test group, and 4 mL/kg (10 mg/kg) of 0.5% HS-15 was injected intravenously in the model group.
• (1) Drinking water measurement: after injection, the animals were put back to their original cages, and the measurement time of each group was in the window covering the Tmax of the drugs (the measurement time was from 0 min to 15 min after administration); in each cage a bottle of normal drinking water and a bottle of drinking water containing 0.3 mM quinine hydrochloride (Quinie) were placed, and the left and right positions of the two bottles in all cages were the same. The animals were allowed to drink freely for 15 min, and the volume of water consumed from the two bottles was measured separately, accurate to 0.1 ml. • (2) Statistical analysis of data: the volume of the consumed quinine bitter water and the volume of the consumed tap water were measured, the percentage of quinine water relative to tap water was calculated, and ANOVA was used to check whether there was a significant difference between the groups.

[4] = tested on: refractory or unexplained chronic cough in adult patients; settings: cited from earlier work

With `C[C@@H](Cn1c(=O)nc(Nc2ccc(Oc3ccccn3)cc2)n(Cc2ccc(Cl)cc2)c1=O)C(=O)O` [Comparative Example 1, reference compound] as the molecule, how does the Number of coughs [1] read?
The Number of coughs was 15.61**.

What about the “Number of coughs 60 min” value [1] of the same molecule?
The value was 22.29**.

What about the “Number of coughs 120 min” value [1] of the same molecule?
Its value is 45.21.

What about the “cough relieving effect 120 min after administration” value ([1]; vs model group, in words) of the same molecule?
Its value is “did not have an obvious cough relieving effect”.

And the IC50 [2]?
Its IC50 is < 10 nM.

Which results are given for `C[C@@H](Cn1c(=O)nc(Nc2ccc(Oc3ccccn3)cc2)n(Cc2ccc(Cl)cc2)c1=O)C(=O)NS(C)(=O)=O` [Example 1]?
duration of cough-relieving action compared to Comparative Compound 1 ([1]; in words): significantly prolonged; Number of coughs [1]: 13.33**; Number of coughs 60 min [1]: 18.37**; Number of coughs 120 min [1]: 17.28**^Δ; effect on the sense of taste [3]: almost no effect; Quinine water/tap water (%) [3]: 37.01%^Δ; IC50 [2]: < 10 nM

What does the source list for `CCS(=O)(=O)NC(=O)[C@@H](C)Cn1c(=O)nc(Nc2ccc(Oc3ccccn3)cc2)n(Cc2ccc(Cl)cc2)c1=O` [Example 2]?
Number of coughs [1]: 17.12**; IC50 [2]: < 10 nM

For `C[C@@H](Cn1c(=O)nc(Nc2ccc(Oc3ccccn3)cc2)n(Cc2ccc(Cl)cc2)c1=O)C(=O)NS(=O)(=O)N(C)C` [Example 3], which “duration of cough-relieving action compared to Comparative Compound 1” value (“duration … compared to Comparative Compound 1” below) ([1]; in words) is on record?
The value was “significantly prolonged”.

And the Number of coughs [1]?
Its Number of coughs is 15.34**.

And the “Number of coughs 60 min” value [1]?
Its value is 16.98**.

And the “Number of coughs 120 min” value [1]?
Its value is 18.56**^Δ.

And the “effect on the sense of taste” value [3]?
The value was “almost no effect”.

What about the “Quinine water/tap water (%)” value [3] of the same molecule?
Its value is 38.11%^Δ.

And the IC50 [2]?
The IC50 was < 10 nM.

With `C[C@@H](Cn1c(=O)nc(Nc2ccc(Oc3ccccn3)cc2)n(Cc2ccc(Cl)cc2)c1=O)C(=O)NS(=O)(=O)C(F)(F)F` [Example 4] as the molecule, how does the Number of coughs [1] read?
Its Number of coughs is 28.61*.

And the IC50 [2]?
Its IC50 is 10.1 to 100 nM.

Which results are given for `C[C@@H](Cn1c(=O)nc(Nc2ccc(Oc3ccccn3)cc2)n(Cc2ccc(Cl)cc2)c1=O)C(=O)NS(=O)(=O)N1CCCC1` [Example 5]?
duration of cough-relieving action compared to Comparative Compound 1 ([1]; in words): significantly prolonged; Number of coughs [1]: 12.85**; Number of coughs 60 min [1]: 16.25**; Number of coughs 120 min [1]: 23.11**^Δ; IC50 [2]: < 10 nM

What does the source list for `CC(C)NS(=O)(=O)NC(=O)[C@@H](C)Cn1c(=O)nc(Nc2ccc(Oc3ccccn3)cc2)n(Cc2ccc(Cl)cc2)c1=O` [Example 6]?
duration of cough-relieving action compared to Comparative Compound 1 ([1]; in words): significantly prolonged; Number of coughs [1]: 20.60**; Number of coughs 60 min [1]: 17.63**; Number of coughs 120 min [1]: 28.78*^Δ; effect on the sense of taste [3]: almost no effect; Quinine water/tap water (%) [3]: 41.54%^Δ; IC50 [2]: < 10 nM

For `C[C@@H](Cn1c(=O)nc(Nc2ccc(Oc3ccccn3)cc2)n(Cc2ccc(Cl)cc2)c1=O)C(=O)NS(=O)(=O)c1ccccc1` [Example 7], which Number of coughs [1] is on record?
The Number of coughs was 28.66*.

And the IC50 [2]?
Its IC50 is 10.1 to 100 nM.

What does the source list for `C[C@@H](Cn1c(=O)nc(Nc2ccc(Oc3ccc(OC(F)F)cn3)cc2)n(Cc2ccc(Cl)cc2)c1=O)C(=O)NS(=O)(=O)c1ccc(F)cc1` [Example 8, (S)-3-(3-(4-chlorobenzyl)-4-(4-(5-(5-(difluoromethoxy)pyridin-2-yl)oxyphenyl)amino)-2,6-dioxo-3,6-dihydro-1,3,5-triazin-1(2H)-yl)-N-(4-(4-fluorophenyl)sulfonyl)-2-methylpropionamide]?
Number of coughs [1]: 29.83*; IC50 [2]: 10.1 to 100 nM

For `Cc1ccc(S(=O)(=O)NC(=O)[C@@H](C)Cn2c(=O)nc(Nc3ccc(Oc4ccccn4)cc3)n(Cc3ccc(Cl)cc3)c2=O)cc1` [Example 9], which Number of coughs [1] is on record?
Its Number of coughs is 25.11*.

And the IC50 [2]?
The IC50 was 10.1 to 100 nM.

For `CNS(=O)(=O)NC(=O)[C@@H](C)Cn1c(=O)nc(Nc2ccc(Oc3ccc(Cl)cn3)cc2)n(Cc2ccc(Cl)cc2)c1=O` [Example 10], which “duration … compared to Comparative Compound 1” value ([1]; in words) is on record?
Its value is “significantly prolonged”.

What about the Number of coughs [1] of the same molecule?
Its Number of coughs is 20.27**.

What about the “Number of coughs 60 min” value [1] of the same molecule?
The value was 20.33**.

What about the “Number of coughs 120 min” value [1] of the same molecule?
The value was 24.13**^Δ.

And the IC50 [2]?
Its IC50 is < 10 nM.

For `CC(C)(Cn1c(=O)nc(Nc2ccc(Oc3ccccn3)cc2)n(Cc2ccc(Cl)cc2)c1=O)C(=O)NS(C)(=O)=O` [Example 11], which “duration … compared to Comparative Compound 1” value ([1]; in words) is on record?
The value was “significantly prolonged”.

And the Number of coughs [1]?
Its Number of coughs is 17.62**.

And the “Number of coughs 60 min” value [1]?
Its value is 16.68**.

What about the “Number of coughs 120 min” value [1] of the same molecule?
Its value is 18.90**^Δ.

And the “effect on the sense of taste” value [3]?
Its value is “almost no effect”.

What about the “Quinine water/tap water (%)” value [3] of the same molecule?
The value was 37.12%^Δ.

What about the IC50 [2] of the same molecule?
The IC50 was < 10 nM.

With `CS(=O)(=O)NC(=O)C1(Cn2c(=O)nc(Nc3ccc(Oc4ccccn4)cc3)n(Cc3ccc(Cl)cc3)c2=O)CC1` [Example 12] as the molecule, how does the “duration … compared to Comparative Compound 1” value ([1]; in words) read?
The value was “significantly prolonged”.

And the Number of coughs [1]?
Its Number of coughs is 19.39**.

And the “Number of coughs 60 min” value [1]?
Its value is 20.17**.

What about the “Number of coughs 120 min” value [1] of the same molecule?
Its value is 24.14**^Δ.

What about the “effect on the sense of taste” value [3] of the same molecule?
The value was “almost no effect”.

What about the “Quinine water/tap water (%)” value [3] of the same molecule?
Its value is 39.39%^Δ.

And the IC50 [2]?
The IC50 was < 10 nM.

What does the source list for `COc1cc(C(C)C)c(Oc2cnc(N)nc2N)cc1S(N)(=O)=O` [Positive control, Gefapixant]?
Number of coughs [1]: 20.51**; Quinine water/tap water (%) [3]: 79.01%**; primary endpoint ([4]; 15 mg twice daily): did not meet the primary endpoint; 24-hour cough frequency ([4]; 45 mg twice daily, Week 12 (COUGH-1) and Week 24 (COUGH-2), compared with placebo): statistically significant reduction; discontinuation due to adverse events ([4]; 45-mg group): higher frequency; taste-related adverse events ([4]; 45-mg group): higher incidence
